{"source": "patent US7371877B2", "about": "“Glycerol ester derivative” (FUJIFILM Corporation, priority 2002, dated 2008)", "origin": "cited, not measured here", "details": "J. Med. Chem., 25, 1500 (1982); cited from earlier work"}
{"smiles": "CCC(Cc1c(I)cc(I)c(N)c1I)C(=O)OC1CCC2(C)C(=CCC3C2CCC2(C)C(C(C)CCCC(C)C)CCC32)C1", "note": "(stereo not shown) [Cholesterol iopanoate]", "values": [{"measurement": "Accumulation in the liver", "result": "known to accumulate in the liver of a living body"}]}
